Source: ChEMBL document CHEMBL5608215, “Development of amphipathic derivatives of thymol and carvacrol as potent broad-spectrum antibacterial agents” (Eur J Med Chem, 2024)
Converted amounts (≈) assume the structure as drawn. The source made the active and inactive calls. The calls are words filed in the database; no cut-off is given here.

Columns and labels:
Staphylococcus aureus [1] = assay: Inhibition of antibiotic-resistance in Staphylococcus aureus ATCC29213 at 0.5 times of MIC incubated for 20 days; assay type: functional; settings: time 20.0 day
Staphylococcus aureus [2] = assay: Antibacterial activity against Staphylococcus aureus ATCC29213 infected in mouse model assessed as reduction in inflammatory factors in skin at 5 mg/kg, sc measured after 24 hrs by H and E staining based analysis; assay type: functional, organism-based
Staphylococcus aureus [3] = assay: Antibacterial activity against Staphylococcus aureus ATCC29213 infected in mouse model assessed as bacterial load in abscesses at 5 mg/kg, sc measured after 24 hrs; assay type: functional
Escherichia coli [4] = assay: Antibacterial activity against Escherichia coli ATCC25922 by CLSI based serial dilution method; assay type: functional
Enterococcus faecalis = assay: Antibacterial activity against Enterococcus faecalis ATCC29212 by CLSI based serial dilution method; assay type: functional
Pseudomonas aeruginosa [5] = assay: Antibacterial activity against Pseudomonas aeruginosa ATCC27853 by CLSI based serial dilution method; assay type: functional
Enterococcus = assay: Antibacterial activity against vancomycin-resistant Enterococcus ATCC51299 by CLSI based serial dilution method; assay type: functional
Staphylococcus aureus [6] = assay: Antibacterial activity against Staphylococcus aureus ATCC29213 infected in mouse model assessed as normalization of skin cell morphology at 5 mg/kg, sc measured after 24 hrs by H and E staining based analysis; assay type: functional, organism-based
Staphylococcus aureus [7] = assay: Bactericidal activity against Staphylococcus aureus ATCC29213 at MIC incubated for 24 hrs by time-kill assay; assay type: functional, organism-based
Staphylococcus aureus [8] = assay: Bactericidal activity against Staphylococcus aureus ATCC29213 incubated upto 24 hrs by time-kill assay; assay type: functional, organism-based
Escherichia coli [9] = assay: Bactericidal activity against Escherichia coli ATCC25922 at MIC incubated for 24 hrs by time-kill assay; assay type: functional, organism-based
Staphylococcus aureus [10] = assay: Antibacterial activity against methicillin-resistant Staphylococcus aureus 21-5 by CLSI based serial dilution method; assay type: functional
Escherichia coli [11] = assay: Bactericidal activity against Escherichia coli ATCC25922 incubated upto 24 hrs by time-kill assay; assay type: functional, organism-based
Staphylococcus aureus [12] = assay: Bactericidal activity against Staphylococcus aureus ATCC29213 assessed as log reduction in bacterial growth at 8 times MIC incubated for 24 hrs by time-kill assay; assay type: functional
Staphylococcus aureus [13] = assay: Antibacterial activity against Staphylococcus aureus ATCC29213 by CLSI based serial dilution method; assay type: functional
Staphylococcus aureus [14] = assay: Bactericidal activity against Staphylococcus aureus ATCC29213 at 8 times MIC incubated for 24 hrs by time-kill assay relative to control; assay type: functional
Pseudomonas aeruginosa [15] = assay: Anti-biofilm activity against Pseudomonas aeruginosa ATCC27853 assessed as biofilm formation rate at 8 times MIC incubated for 48 hrs by crystal violet staining based analysis relative to control; assay type: functional
Escherichia coli [16] = assay: Bactericidal activity against Escherichia coli ATCC25922 at 8 times MIC incubated for 12 hrs by time-kill assay relative to control; assay type: functional
Escherichia coli [17] = assay: Bactericidal activity against Escherichia coli ATCC25922 assessed as inhibition of bacterial regrowth at 8 times MIC incubated for 24 hrs by time-kill assay; assay type: functional, organism-based

SMILES	MIC (Escherichia coli [4]) [µg/mL]	MIC (Enterococcus faecalis) [µg/mL]	MIC (Pseudomonas aeruginosa [5]) [µg/mL]	MIC (Enterococcus) [µg/mL]	MIC (Staphylococcus aureus [10]) [µg/mL]	MIC (Staphylococcus aureus [13]) [µg/mL]	also measured
CCn1cc(C(=O)O)c(=O)c2cc(F)c(N3CCNCC3)cc21							inhibition (Staphylococcus aureus [1]): inactive
CN[C@H](CC(C)C)C(=O)N[C@H]1C(=O)N[C@@H](CC(N)=O)C(=O)N[C@H]2C(=O)N[C@H]3C(=O)N[C@H](C(=O)N[C@H](C(=O)O)c4cc(O)cc(O)c4-c4cc3ccc4O)[C@H](O)c3ccc(c(Cl)c3)Oc3cc2cc(c3O[C@@H]2O[C@H](CO)[C@@H](O)[C@H](O)[C@H]2O[C@H]2C[C@](C)(N)[C@H](O)[C@H](C)O2)Oc2ccc(cc2Cl)[C@H]1O [VANCOMYCIN]	128 (≈ 88.3 µM)	2 (≈ 1.38 µM)	> 128	> 128			Activity (Staphylococcus aureus [2]): Active; Activity (Staphylococcus aureus [3]): 3.2 log10CFU/g; Activity (Staphylococcus aureus [6]): Active
CCCCCCN(CCCCCC)C(=O)C[N+](C)(C)CCCCOc1cc(C(C)C)ccc1C.[Br-]	4	0.125	8	0.5	8	0.5	Activity (Staphylococcus aureus [7]): inactive; Activity (Staphylococcus aureus [8]): Dose-Dependent Effect; Activity (Escherichia coli [9]): inactive; Activity (Escherichia coli [11]): Dose-Dependent Effect; inhibition (Staphylococcus aureus [1]): Active; Activity (Staphylococcus aureus [12]): >3 log10CFU/ml; Activity (Staphylococcus aureus [14]): >99.9%; Activity (Pseudomonas aeruginosa [15]): 55.3%; Activity (Escherichia coli [16]): 100%; inhibition (Escherichia coli [17]): Active
Cc1ccc(C(C)C)c(O)c1 [THYMOL]	128 (≈ 852 µM)	> 128	> 128	> 128	> 128	> 128	
CCCCN(CCCC)C(=O)C[N+](C)(C)CCCCCOc1cc(C)ccc1C(C)C.[Br-]	32	4	128	8	2	2	
CCCCCCCNC(=O)C[N+](C)(C)CCCOc1cc(C(C)C)ccc1C.[Br-]	8	2	16	4	16	2	
Cc1ccc(C(C)C)c(OCCCCC[N+](C)(C)CC(=O)N2CCOCC2)c1.[Br-]	> 128	128	> 128	> 128	> 128	128	
CCCCCCCNC(=O)C[N+](C)(C)CCCCCOc1cc(C(C)C)ccc1C.[Br-]	4	1	8	2	4	1	
Cc1ccc(C(C)C)cc1OCCCC[N+](C)(C)CC(=O)N(CC(C)C)CC(C)C.[Br-]	64	8	> 128	8	4	4	
CCCCCNC(=O)C[N+](C)(C)CCCOc1cc(C)ccc1C(C)C.[Br-]	32	16	> 128	32	16	8	
Cc1ccc(C(C)C)cc1OCCC[N+](C)(C)CC(=O)N(CC(C)C)CC(C)C.[Br-]	64	16	> 128	16	16	4	
CCCCN(CCCC)C(=O)C[N+](C)(C)CCCOc1cc(C(C)C)ccc1C.[Br-]	64	8	> 128	16	8	4	
Cc1ccc(C(C)C)cc1OCCCCC[N+](C)(C)CC(=O)N1CCSCC1.[Br-]	128	32	> 128	64	128	32	
CCCCNC(=O)C[N+](C)(C)CCCCOc1cc(C(C)C)ccc1C.[Br-]	64	32	> 128	64	64	16	
Cc1ccc(C(C)C)c(OCCC[N+](C)(C)CC(=O)N2CCSCC2)c1.[Br-]	> 128	128	> 128	> 128	64	64	
CCCN(CCC)C(=O)C[N+](C)(C)CCCOc1cc(C(C)C)ccc1C.[Br-]	128	32	> 128	128	64	32	

SMILES	MIC (Escherichia coli [4]) [µg/mL]	MIC (Enterococcus faecalis) [µg/mL]	MIC (Pseudomonas aeruginosa [5]) [µg/mL]	MIC (Enterococcus) [µg/mL]	MIC (Staphylococcus aureus [10]) [µg/mL]	MIC (Staphylococcus aureus [13]) [µg/mL]	also measured
CCCCCCN(CCCCCC)C(=O)C[N+](C)(C)CCCOc1cc(C)ccc1C(C)C.[Br-]	128	16	> 128	32	> 128	16	
CCCN(CCC)C(=O)C[N+](C)(C)CCCCCOc1cc(C)ccc1C(C)C.[Br-]	64	8	> 128	16	8	8	
Cc1ccc(C(C)C)c(OCCCCC[N+](C)(C)CC(=O)N(C(C)C)C(C)C)c1.[Br-]	64	8	> 128	16	2	4	
CCCNC(=O)C[N+](C)(C)CCCCCOc1cc(C)ccc1C(C)C.[Br-]	128	64	> 128	128	32	32	
CCCCNC(=O)C[N+](C)(C)CCCOc1cc(C(C)C)ccc1C.[Br-]	64	32	> 128	64	64	32	
CCCCCCN(CCCCCC)C(=O)C[N+](C)(C)CCCCOc1cc(C)ccc1C(C)C.[Br-]	> 128	> 128	> 128	> 128	> 128	> 128	
CCCNC(=O)C[N+](C)(C)CCCOc1cc(C)ccc1C(C)C.[Br-]	> 128	128	> 128	> 128	128	64	
CCCCCCNC(=O)C[N+](C)(C)CCCCOc1cc(C)ccc1C(C)C.[Br-]	16	4	64	8	1	2	
CCCNC(=O)C[N+](C)(C)CCCCOc1cc(C(C)C)ccc1C.[Br-]	128	64	> 128	> 128	> 128	64	
Cc1ccc(C(C)C)c(OCCC[N+](C)(C)CC(=O)N2CCOCC2)c1.[Br-]	128	> 128	> 128	> 128	> 128	> 128	
CCCNC(=O)C[N+](C)(C)CCCCCOc1cc(C(C)C)ccc1C.[Br-]	128	64	> 128	128	128	32	
CCCCCCCNC(=O)C[N+](C)(C)CCCCOc1cc(C(C)C)ccc1C.[Br-]	4	2	16	4	16	1	
Cc1ccc(C(C)C)cc1OCCCCC[N+](C)(C)CC(=O)N1CCOCC1.[Br-]	> 128	128	> 128	> 128	128	128	
CCCCCNC(=O)C[N+](C)(C)CCCCCOc1cc(C)ccc1C(C)C.[Br-]	32	16	128	16	4	8	
CCCCCCN(CCCCCC)C(=O)C[N+](C)(C)CCCCCOc1cc(C(C)C)ccc1C.[Br-]	8	1	16	1	16	1	
Cc1ccc(C(C)C)cc1OCCC[N+](C)(C)CC(=O)N1CCOCC1.[Br-]	> 128	128	> 128	> 128	> 128	128	
